Data: patent US9499538B2, “Estrogen receptor modulators and uses thereof” (Seragon Pharmaceuticals, Inc., priority 2012, dated 2016)

Tests used:
[1] = tested on: MCF-7 cells; assay: Breast Cancer Cell Viability Assays (MCF-7, CellTiter-Glo); format: cell-based; details: 5 days' compound exposure; for IC50: Homo sapiens, MCF7, 120 h
Method in brief: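 Percent viability, background-subtracted against untreated wells, was taken from CellTiter-Glo luminescence after 5 days' exposure of MCF-7 cells. Compounds were tested at eleven semilog concentrations, final 0.3–0.000003 μM, in RPMI containing 10% FBS.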

[2] = target: T1, ER-α in MCF-7 cells (Homo sapiens, UniProt P03372); assay: Breast Cancer Cell ER-α In Cell Western Assay (SP1); format: cell-based; details: 4 or 24 hr post compound addition; for Emax: MCF7, SP1 antibody, read-out: ER-α In Cell Western Assay (SP1) Max Response; for DC50: SP1 antibody, read-out: ER-α In Cell Western Assay (SP1) IC50
T1 construct: endogenous in cells; host or cells: MCF-7
T1 sequence (P03372 1-595): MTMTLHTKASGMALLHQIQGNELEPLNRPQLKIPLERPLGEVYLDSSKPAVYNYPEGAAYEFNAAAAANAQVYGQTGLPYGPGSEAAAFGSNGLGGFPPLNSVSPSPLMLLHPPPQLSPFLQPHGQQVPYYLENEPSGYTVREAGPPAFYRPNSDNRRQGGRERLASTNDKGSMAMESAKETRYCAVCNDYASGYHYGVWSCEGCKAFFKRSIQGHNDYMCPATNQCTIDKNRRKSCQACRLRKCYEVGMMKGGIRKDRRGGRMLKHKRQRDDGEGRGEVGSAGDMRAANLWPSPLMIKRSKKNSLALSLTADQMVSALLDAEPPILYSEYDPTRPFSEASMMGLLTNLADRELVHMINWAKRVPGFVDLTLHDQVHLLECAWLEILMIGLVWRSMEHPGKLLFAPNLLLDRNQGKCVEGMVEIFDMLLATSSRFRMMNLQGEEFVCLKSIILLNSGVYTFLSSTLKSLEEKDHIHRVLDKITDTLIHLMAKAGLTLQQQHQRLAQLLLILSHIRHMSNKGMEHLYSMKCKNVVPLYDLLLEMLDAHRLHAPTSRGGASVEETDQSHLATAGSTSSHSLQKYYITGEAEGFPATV
Method in brief: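 ER-α levels quantified by in-cell western: SP1 signal normalised to DRAQ5 DNA stain, relative to untreated cells (% ER). Compounds at 0.3–0.000003 μM final, 11-point semilog series, 4 or 24 h exposure of MCF-7 cells grown in charcoal-stripped serum.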

Compound | IC50 [1] [nM] | Emax [2] [%] | DC50 [2] [nM] | MCF7 Viability Assay Max Response [1]
COc1ccc(/C(=C(\c2ccc(/C=C/C(=O)O)cc2)c2ccc3scnc3c2)C2CCC2)c(C#N)c1 [Example 97, (E)-3-(4-((E)-1-(Benzo[d]thiazol-5-yl)-2-(2-cyano-4-methoxyphenyl)-2-cyclobutylvinyl)phenyl)acrylic acid] | ≤ 100 | ≥ 40 | ≤ 100 | ++ (++ = a single % value ≧ 40%)
N#Cc1ccc(/C(=C(\c2ccc(/C=C/C(=O)O)cc2)c2ccc3scnc3c2)C2CCC2)c(Cl)c1 [Example 218, (E)-3-(4-((E)-1-(Benzo[d]thiazol-5-yl)-2-(2-chloro-4-cyanophenyl)-2-cyclobutylvinyl)phenyl)acrylic acid] | ≤ 100 | ≥ 40 | ≤ 100 | ++ (++ = a single % value ≧ 40%)
C/C(=C\C(=O)O)c1ccc(/C(=C(\c2ccccc2)C2CCC2)c2ccc3[nH]nc(F)c3c2)cc1 [Example 266, (E)-3-(4-((E)-2-Cyclobutyl-1-(3-fluoro-1H-indazol-5-yl)-2-phenylvinyl)phenyl)but-2-enoic acid] | ≤ 100 | ≥ 40 | ≤ 100 | ++ (++ = a single % value ≧ 40%)
O=C(O)/C=C/c1ncc(/C(=C(\c2ccccc2)C2CCC2)c2ccc3[nH]nc(F)c3c2)cc1F [Example 161, (E)-3-(5-((Z)-2-Cyclobutyl-1-(3-fluoro-1H-indazol-5-yl)-2-phenylvinyl)-3-fluoropyridin-2-yl)acrylic acid] | ≤ 100 | ≥ 40 | ≤ 100 | ++ (++ = a single % value ≧ 40%)
O=C(/C=C/c1ccc(/C(=C(\c2ccccc2)C2CCC2)c2ccc3[nH]nc(F)c3c2)cc1)NCCCl [Example 191, (E)-N-(2-Chloroethyl)-3-(4-((E)-2-cyclobutyl-1-(3-fluoro-1H-indazol-5-yl)-2-phenylvinyl)phenyl)acrylamide] | ≤ 100 | ≥ 40 | ≤ 100 | ++ (++ = a single % value ≧ 40%)
N#Cc1cc(C(F)(F)F)ccc1/C(=C(\c1ccc(/C=C/C(=O)O)cc1)c1ccc2scnc2c1)C1CCC1 [Example 242, (E)-3-(4-((E)-1-(Benzo[d]thiazol-5-yl)-2-(2-cyano-4-(trifluoromethyl)phenyl)-2-cyclobutylvinyl)phenyl)acrylic acid] | ≤ 100 | ≥ 40 | ≤ 100 | ++ (++ = a single % value ≧ 40%)
O=C(/C=C/c1ccc(/C(=C(\c2ccccc2)C2CCC2)c2cccc3[nH]ncc23)cc1)NCCO [Example 183, (E)-3-(4-((E)-2-Cyclobutyl-1-(1H-indazol-4-yl)-2-phenylvinyl)phenyl)-N-(2-hydroxyethyl)acrylamide] | ≤ 100 | ≥ 40 | ≤ 100 | ++ (++ = a single % value ≧ 40%)
N#Cc1c(/C(=C(/c2ccc(F)cc2Cl)C2CC2)c2ccc(/C=C/C(=O)O)cc2)ccc2[nH]nc(F)c12 [Example 222, (E)-3-(4-((E)-2-(2-Chloro-4-fluorophenyl)-1-(4-cyano-3-fluoro-1H-indazol-5-yl)-2-cyclopropylvinyl)phenyl)acrylic acid] | ≤ 100 | ≥ 40 | ≤ 100 | ++ (++ = a single % value ≧ 40%)
CC/C(=C(/c1ccc(/C=C/C(=O)O)cc1)c1ccc2[nH]nc(F)c2c1)c1cnc(OC)cc1C [Example 71, (E)-3-(4-((E)-1-(3-Fluoro-1H-indazol-5-yl)-2-(6-methoxy-4-methylpyridin-3-yl)but-1-en-1-yl)phenyl)acrylic acid] | ≤ 100 | ≥ 40 | ≤ 100 | ++ (++ = a single % value ≧ 40%)
CC/C(=C(/c1ccc(/C=C/C(=O)NCCO)cc1)c1ccc2[nH]ncc2c1)c1ccc(F)cc1Cl [Example 179, (E)-3-(4-((E)-2-(2-Chloro-4-fluorophenyl)-1-(1H-indazol-5-yl)but-1-en-1-yl)phenyl)-N-(2-hydroxyethyl)acrylamide] | ≤ 100 | ≥ 40 | ≤ 100 | ++ (++ = a single % value ≧ 40%)
O=C(O)/C=C/c1ccc(/C(=C(\c2ccc(C(F)(F)F)cc2Cl)C2CCC2)c2ccc3nccn3c2)cc1 [Example 231, (E)-3-(4-((E)-2-(2-Chloro-4-(trifluoromethyl)phenyl)-2-cyclobutyl-1-(imidazo[1,2-a]pyridin-6-yl)vinyl)phenyl)acrylic acid] | ≤ 100 | ≥ 40 | ≤ 100 | ++ (++ = a single % value ≧ 40%)
N#Cc1c(/C(=C(/c2ccc(F)cc2Cl)C2CCC2)c2ccc(/C=C/C(=O)O)cc2)ccc2nccn12 [Example 224, (E)-3-(4-((E)-2-(2-Chloro-4-fluorophenyl)-1-(5-cyanoimidazo[1,2-a]pyridin-6-yl)-2-cyclobutylvinyl)phenyl)acrylic acid] | ≤ 100 | ≥ 40 | ≤ 100 | ++ (++ = a single % value ≧ 40%)

Second part, led by results:

IC50 [1] [nM] | Emax [2] [%] | DC50 [2] [nM] | Compound | MCF7 Viability Assay Max Response [1]
≤ 100 | ≥ 40 | ≤ 100 | O=C(O)/C=C/c1ccc(/C(=C(\c2ccc(F)cc2Cl)C2CC2)c2ccc3[nH]nc(F)c3c2)cc1 [Example 152, (E)-3-(4-((E)-2-(2-Chloro-4-fluorophenyl)-2-cyclopropyl-1-(3-fluoro-1H-indazol-5-yl)vinyl)phenyl)acrylic acid] | ++ (++ = a single % value ≧ 40%)
≤ 100 | ≥ 40 | ≤ 100 | Cc1cnccc1/C(=C(\c1ccc(/C=C/C(=O)O)cc1)c1ccc2[nH]nc(F)c2c1)C1CCC1 [Example 46, (E)-3-(4-((E)-2-Cyclobutyl-1-(3-fluoro-1H-indazol-5-yl)-2-(3-methylpyridin-4-yl)vinyl)phenyl)acrylic acid] | ++ (++ = a single % value ≧ 40%)
≤ 100 | ≥ 40 | ≤ 100 | CNC(=O)/C=C/c1ccc(/C(=C(\c2ccccc2)C2CCC2)c2ccc3[nH]nc(F)c3c2)cc1 [Example 190, (E)-3-(4-((E)-2-Cyclobutyl-1-(3-fluoro-1H-indazol-5-yl)-2-phenylvinyl)phenyl)-N-methylacrylamide] | ++ (++ = a single % value ≧ 40%)
≤ 100 | ≥ 40 | ≤ 100 | CSc1ccc(/C(=C(\c2ccc(/C=C/C(=O)O)cc2)c2ccc3[nH]nc(F)c3c2)C2CCC2)c(Cl)c1 [Example 73, (E)-3-(4-((E)-2-(2-Chloro-4-(methylthio)phenyl)-2-cyclobutyl-1-(3-fluoro-1H-indazol-5-yl)vinyl)phenyl)acrylic acid] | ++ (++ = a single % value ≧ 40%)
> 100 | ≥ 40 | ≤ 100 | O=C(O)/C=C/c1ccc(/C(=C(\c2cccnc2)C2CCC2)c2ccc3[nH]nc(F)c3c2)cc1 [Example 128, (E)-3-(4-((E)-2-Cyclobutyl-1-(3-fluoro-1H-indazol-5-yl)-2-(pyridin-3-yl)vinyl)phenyl)acrylic acid] | + (+ = a single % value < 40%)
≤ 100 | ≥ 40 | ≤ 100 | O=C(O)/C=C/c1ccc(/C(=C(\c2ncccc2Cl)C2CCC2)c2ccc3[nH]nc(F)c3c2)cc1 [Example 143, (E)-3-(4-((E)-2-(3-Chloropyridin-2-yl)-2-cyclobutyl-1-(3-fluoro-1H-indazol-5-yl)vinyl)phenyl)acrylic acid] | ++ (++ = a single % value ≧ 40%)
≤ 100 | ≥ 40 | ≤ 100 | O=C(O)/C=C/c1ccc(/C(=C(\c2ccccc2Cl)C2CCC2)c2ccc3[nH]nc(F)c3c2)cn1 [Example 169, (E)-3-(5-((Z)-2-(2-Chlorophenyl)-2-cyclobutyl-1-(3-fluoro-1H-indazol-5-yl)vinyl)pyridin-2-yl)acrylic acid] | ++ (++ = a single % value ≧ 40%)
≤ 100 | ≥ 40 | ≤ 100 | COc1ccc(/C(=C(\c2ccc(/C=C/C(=O)O)cc2)c2ccc3[nH]nc(F)c3c2)C2CCC2)cc1 [Example 23, (E)-3-(4-((E)-2-Cyclobutyl-1-(3-fluoro-1H-indazol-5-yl)-2-(4-methoxyphenyl)vinyl)phenyl)acrylic acid] | ++ (++ = a single % value ≧ 40%)
